Laboratory results from ChEMBL document CHEMBL1124516, “Synthesis of 2,3-diaziridinyl-1,4-naphthoquinone sulfonate derivatives as potential antineoplastic agents” (1989).

Legend:
Mus musculus [1] = assay: Average change in weight in mice bearing the B16 Melanoma, when compound(3 mg/kg) was administered beginning 24 hr after tumor implantation, daily once for 6 consecutive days.; assay type: functional
Mus musculus [2] = assay: The ratio of the survival time of treated to control animals x 100 in mice bearing L1210 leukemia, when compound (3 mg/kg) was administered intraperitoneally; assay type: functional
Mus musculus [3] = assay: Number of mice survived for a period of greater than 50 days when a dose of 3 mg/Kg is administered intraperitoneally; tested in 5 mice; assay type: functional
Mus musculus [4] = assay: The ratio of the survival time of treated to control animals x 100 in mice bearing B16 Melanoma, when compound (3 mg/kg) was administered intraperitoneally; assay type: functional
Mus musculus [5] = assay: Survival of mice bearing B16 melanoma cells greater than 50 days when treated with a dose of 3 mg/Kg administered intraperitoneally; tested in 5 mice; assay type: functional
Mus musculus [6] = assay: Average change in weight in mice bearing the L1210 Leukemia, when compound (3 mg/kg) was administered beginning 24 hr after tumor implantation, daily once for 6 consecutive days.; assay type: functional
Mus musculus [7] = assay: Survival of mice bearing B16 melanoma cells greater than 50 days when treated with a dose of 150 mg/Kg administered intraperitoneally; tested in 5 mice; assay type: functional
Mus musculus [8] = assay: Average change in weight in mice bearing the B16 Melanoma, when compound(50 mg/kg) was administered intraperitoneally beginning 24 hr after tumor implantation, daily once for 6 consecutive days.; assay type: functional
Mus musculus [9] = assay: The ratio of the survival time of treated to control animals x 100 in mice bearing B16 Melanoma, when compound (100 mg/kg) was administered intraperitoneally; assay type: functional
Mus musculus [10] = assay: Average change in weight in mice bearing the B16 Melanoma, when compound(100 mg/kg) was administered beginning 24 hr after tumor implantation, daily once for 6 consecutive days.; assay type: functional
Mus musculus [11] = assay: The ratio of the survival time of treated to control animals x 100 in mice bearing B16 Melanoma, when compound (50 mg/kg) was administered intraperitoneally; assay type: functional
L1210 [12] = assay: Percentage survival time of L1210 (murine leukemia) inoculated mice following 25 mg/kg i.p.; assay type: functional, Mus musculus; conditions: route intraperitoneal
Mus musculus [13] = assay: Survival of mice bearing B16 melanoma cells greater than 50 days when treated with a dose of 50 mg/Kg administered intraperitoneally; tested in 5 mice; assay type: functional
Mus musculus [14] = assay: Average change in weight in mice bearing the L1210 Leukemia, when compound(30 mg/kg) was administered once daily beginning 24 hr after tumor implantation, for 6 consecutive days.; assay type: functional
Mus musculus [15] = assay: Average change in weight in mice bearing the B16 Melanoma, when compound(150 mg/kg) was administered beginning 24 hr after tumor implantation, daily once for 6 consecutive days.; assay type: functional
Mus musculus [16] = assay: Average change in weight in mice bearing the L1210 Leukemia, when compound (25 mg/kg) was administered once daily beginning 24 hr after tumor implantation, for 6 consecutive days.; assay type: functional
Mus musculus [17] = assay: Survival of mice bearing B16 melanoma cells greater than 50 days when treated with a dose of 100 mg/Kg administered intraperitoneally; tested in 5 mice; assay type: functional
Mus musculus [18] = assay: Number of mice surviving for a period greater than 50 days when a dose of 30 mg/Kg is administered intraperitoneally; tested in 5 mice; assay type: functional
L1210 [19] = assay: Percentage survival time of L1210 (murine leukemia) inoculated mice following 30 mg/kg i.p.; assay type: functional, Mus musculus; conditions: route intraperitoneal
Mus musculus [20] = assay: The ratio of the survival time of treated to control animals x 100 in mice bearing B16 Melanoma, when compound (150 mg/kg) was administered intraperitoneally; assay type: functional
L1210 [21] = assay: Number L1210 (murine leukemia) inoculated mice surviving for >50 days following 25 mg/kg i.p.; assay type: functional, Mus musculus; conditions: route intraperitoneal
Mus musculus [22] = assay: Number of mice survived for a period greater than 50 days when a dose of 20 mg/Kg is administered intraperitoneally; tested in 5 mice; assay type: functional
Mus musculus [23] = assay: Average change in weight in mice bearing the L1210 Leukemia, when compound (20 mg/kg) was administered once daily beginning 24 hr after tumor implantation, for 6 consecutive days.; assay type: functional
L1210 [24] = assay: Percentage survival time of L1210 (murine leukemia) inoculated mice following 20 mg/kg i.p.; assay type: functional, Mus musculus; conditions: route intraperitoneal
Mus musculus [25] = assay: Number of mice survived for a period of greater than 50 days when a dose of 30 mg/Kg is administered intraperitoneally; tested in 10 mice; assay type: functional
Mus musculus [26] = assay: Number of mice survived for a period of greater than 50 days when a dose of 25 mg/Kg is administered intraperitoneally; tested in 10 mice; assay type: functional
Mus musculus [27] = assay: Number of mice survived for a period of greater than 50 days when a dose of 20 mg/Kg is administered intraperitoneally; tested in 10 mice; assay type: functional
Mus musculus [28] = assay: Number of mice survived for a period of greater than 50 days when a dose of 5 mg/Kg is administered intraperitoneally; tested in 5 mice; assay type: functional
Mus musculus [29] = assay: Average change in weight in mice bearing the L1210 Leukemia, when compound (15 mg/kg) was administered beginning 24 hr after tumor implantation, daily once for 6 consecutive days.; assay type: functional
Mus musculus [30] = assay: Average change in weight in mice bearing the L1210 Leukemia, when compound (5 mg/kg) was administered beginning 24 hr after tumor implantation, daily once for 6 consecutive days.; assay type: functional
Mus musculus [31] = assay: Number of mice survived for a period of greater than 50 days when a dose of 10 mg/kg is administered intraperitoneally; tested in 5 mice; assay type: functional; conditions: route intraperitoneal
Mus musculus [32] = assay: The ratio of the survival time of treated to control animals x 100 in mice bearing L1210 Leukemia, when compound (15 mg/kg) was administered intraperitoneally; assay type: functional
Mus musculus [33] = assay: Average change in weight in mice bearing the L1210 Leukemia, when compound (10 mg/kg) was administered beginning 24 hr after tumor implantation, daily once for 6 consecutive days.; assay type: functional
Mus musculus [34] = assay: The ratio of the survival time of treated to control animals x 100 in mice bearing L1210 leukemia, when compound (5 mg/kg) was administered intraperitoneally; assay type: functional
Mus musculus [35] = assay: The ratio of the survival time of treated to control animals x 100 in mice bearing L1210 Leukemia, when compound (10 mg/kg) was administered intraperitoneally; assay type: functional
Mus musculus [36] = assay: Number of mice survived for a period of greater than 50 days when a dose of 15 mg/kg is administered intraperitoneally; tested in 5 mice; assay type: functional; conditions: route intraperitoneal

SMILES	Survivals (Mus musculus [7])	Average body weight change (Mus musculus [8]) [%]	Activity (Mus musculus [9])	Average change in body weight (Mus musculus [10]) [%]	Activity (Mus musculus [11])	Activity (L1210 [12])	Survivals (Mus musculus [13])	Average change in body weight (Mus musculus [14]) [%]	Average change in body weight (Mus musculus [15]) [%]	Average body weight change (Mus musculus [16]) [%]	Survivals (Mus musculus [17])	Survivals (Mus musculus [18])	Activity (L1210 [19])	Activity (Mus musculus [20])	Survivals (L1210 [21])	Survivals (Mus musculus [22])	Average change in body weight (Mus musculus [23]) [%]	Activity (L1210 [24])	further results
CCOC(=O)NC1=C(N2CC2)C(=O)C(NC(=O)OCC)=C(N2CC2)C1=O [DIAZIQUONE]																			Average weight (Mus musculus [1]): -13.8%; Activity (Mus musculus [2]): 231; Survivals (Mus musculus [3]): 0; Activity (Mus musculus [4]): 147; Survivals (Mus musculus [5]): 0; Average weight (Mus musculus [6]): -11.7%
O=C1C(N2CC2)=C(N2CC2)C(=O)c2c(OS(=O)(=O)c3ccc(Cl)cc3)cccc21	0	1.1	153	-2.5	143	200	0	-2.7	-3.2	1.7	0	3	167	178	0	0	4.2	161	
O=C1C(N2CC2)=C(N2CC2)C(=O)c2c(OS(=O)(=O)c3ccccc3)cccc21	0	-1.3	180	-12.3	156		0	-7	-13.5	-8.3	0	4	359	148	5	5	-6.2		
O=C1C(N2CC2)=C(N2CC2)C(=O)c2c(OS(=O)(=O)c3ccc(Br)cc3)cccc21		1.1	153	2.5	143	165		8.3	0.7	11.2		0	179	151	0	0	12.2	214	
O=C1C(N2CC2)=C(N2CC2)C(=O)c2c(OS(=O)(=O)c3ccc(F)cc3)cccc21	0	-5.2	182	-14.3	159	200	0	-3.4	-20.3	-5.7	0	5		177	4	5	0.3		
Cc1ccc(S(=O)(=O)Oc2cccc3c2C(=O)C(N2CC2)=C(N2CC2)C3=O)cc1	0	4.5	153	-1.9	144	490	0	-7.4	-9.8	-3.5	0		248	141			-2.2	155	Survivals (Mus musculus [25]): 7; Survivals (Mus musculus [26]): 9; Survivals (Mus musculus [27]): 7
O=C1C(N2CC2)=CC(=O)c2c(O)cccc21																			Survival (Mus musculus [28]): 0; Average weight (Mus musculus [29]): 2.1%; Average weight (Mus musculus [30]): 12.7%; Survival (Mus musculus [31]): 0; Activity (Mus musculus [32]): 90; Average weight (Mus musculus [33]): 5.1%; Activity (Mus musculus [34]): 231; Activity (Mus musculus [35]): 94; Survival (Mus musculus [36]): 0
O=C1C(N2CC2)=C(N2CC2)C(=O)c2c(OS(=O)(=O)c3cccc4cccnc34)cccc21		-1.7	219	-8.2	195	418		-8	-14.3	-6.5		3	291	239	4	3	-6.6	332	
